Experimental data reported in patent US20230414732A1, “COMPOSITIONS OF EMBEDDED EPITOPE RANDOM PEPTIDES (EERP) FOR TREATMENT OF IMMUNE-MEDIATED CONDITIONS, AND METHODS OF USE” (PALENA THERAPEUTICS, INC., priority 2020, published 2023).

Experiments:
[1] = tested on: LPS-stimulated human monocytic cell line THP-1; experiment: Inhibition of pro-inflammatory cytokine secretion by LPS-stimulated THP-1 cells (ELISA); assay type: cell-based; conditions: 1.5 hr pre-incubation, LPS 1 μg/mL 24 hr
Method: Cell-based assays. Human monocytic cell line THP-1 (ATCC, Manassas, VA) was cultured in RPMI media supplemented with 10% fetal bovine serum (FBS) and antibiotics penicillin/streptomycin in a 37° C. 5% CO 2 incubator. Cells were plated at 0.25×10^6 cells/well in a 24-well cell culture plate and pre-incubated for 1.5 hr with Glatopa, PT-001 or PT-002 at the final concentration 0.1 μg/mL or 10 μg/mL each, followed by addition of lipopolysaccharide (LPS) at the final concentration of 1 μg/mL and incubation for 24 hr in a 37° C. 5% CO2 incubator. Plates were centrifuged and supernatants (100 μL) were tested for levels of pro-inflammatory cytokines IL-1β, IL-6 and TNF-α using commercial ELISA kits (R&D System for IL-1β, BioLegend for IL-6 and TNF-α). […] Percent inhibition is calculated as 100-(cytokine concentration in presence of inhibitor/cytokine concentration without inhibitor*100).

[2] = tested on: MOG-induced EAE in C57B1/6 female mice; experiment: Prophylactic treatment of MOG35-55-induced EAE, a mouse model of MS; assay type: in vivo; conditions: for Incidence of EAE: 500 μg single dose co-administered with MOG 35-55 in CFA, scored Day 7 to Day 28
Description: FIG. 2 is a graph showing prophylactic treatment of MOG-induced EAE in mice (an animal model for multiple sclerosis (MS)) using an EERP according to the present invention. EAE was induced in C57B1/6 female mice at 10 weeks of age by MOG35-55 (Control; depicted as diamonds) and treated prophylactically by co-administration of Glatopa (depicted as triangles), PT-001 (YFAK random copolymer, depicted as open squares), or PT-002 (EERP consisting of linear random polypeptide YFAK with the peptide AYKAAA embedded in it; depicted as cross) at 500 μg/dose each. Mice (12 per treatment group) were monitored for signs of disease for 28 days post immunization. Numbers on the ordinate represent mean clinical score of clinical symptoms monitored for the days shown on the abscissa.
FIG. 3 is a graph showing prophylactic treatment of MOG-induced EAE in mice using two different doses of an EERP according to the present invention. […] Mice (10 per treatment group) were monitored for signs of disease for 28 days post immunization. Numbers on the ordinate represent mean clinical score of clinical symptoms monitored for the days shown on the abscissa.
The EERP of the invention is further tested in vivo in a prophylactic model of MS, EAE, which is induced in female mice of C57B1/6J strain by MOG 35-55 encephalitogenic peptide co-administered with the EERP in Complete Freund's Adjuvant. […] Disease severity is based on clinical observations and is assessed on the scale from 0 to 5. […]
Prophylactic treatment of EAE, a mouse model of MS. […] Mice (12 per treatment group) were monitored daily in a blind fashion starting from Day 7 for signs of disease for 28 days post immunization. […]
Prophylactic treatment of EAE, a mouse model of MS, by 2 different doses of EERP. […] Mice (10 per treatment group) were monitored daily in a blind fashion starting from Day 7 for signs of disease for 28 days post immunization. […]

relapsing forms of MS = conditions: cited from earlier work
[3] = tested on: experimental allergic encephalomyelitis (EAE); conditions: mouse model for multiple sclerosis; cited from earlier work

Compound | Percent inhibition (%) IL-1b ([1]; 0.1 μg/mL compound) [%] | Percent inhibition (%) IL-6 ([1]; 0.1 μg/mL compound) [%] | Percent inhibition (%) TNF-a ([1]; 0.1 μg/mL compound) [%] | Percent inhibition (%) IL-1b ([1]; 10 μg/mL compound) [%] | Percent inhibition (%) IL-6 ([1]; 10 μg/mL compound) [%] | Percent inhibition (%) TNF-a ([1]; 10 μg/mL compound) [%] | Incidence of EAE [2] [%] | Signs of disease (clinical score) ([2]; Example 2: 500 μg/dose, single dose in immunization emulsion, subcutaneous, 28 days post immunization) | Reduction in relapses (relapsing forms of MS) | Suppression of EAE [3]
C[N+]1(C)CCC(OC(=O)C(O)(c2ccccc2)C2CCCC2)C1 (centres unmarked) [PT-001] | 21 | −8 | −5 | 77 | 84 | 34 | 0 | did not exhibit any signs of disease |  | 
glatiramer acetate [Glatopa] | 22 | −10 | −162 | 42 | −21 | −37 | 67 |  |  | 
poly (Y, E, A, K) [Cop 1] |  |  |  |  |  |  |  |  | about 30% | capable of suppressing experimental allergic encephalomyelitis
